Assay results published in US11168153B2, “Cyclodextrin-based transporter of nucleoside triphosphate transporter across the cell membrane, its preparation and use” (USTAV ORGANICKE CHEMIE A BIOCHEMIE AV CR, V.V.I., priority 2016, dated 2021).

System: HIV
Test: Testing virostatic activity of adefovir diphosphate 8 in TZM-bl cell culture infected with HIV
Assay type: cell-based, Human immunodeficiency virus
From the text: The subject of testing was the compound of structure formula 8 (adefovir diphosphate) which is a known (Mulato & Cherrington, 1997) active metabolite—the reverse transcriptase inhibitor—in inhibiting the replication of viral DNA of HIV. In determining activity of […], compound 7 (tenofovir), which is a clinically approved drug used for the treatment of HIV, was used as a standard. […] Then the solution of the complex was removed and the infected cells were overlaid with medium with serum and incubated at 37° C. Parallel control experiments were performed (without infection; infection without active substance; 10 μmol·l^−1 tenofovir 7 throughout incubation; compound 8 without a carrier).

**Q.** How did the “Virostatic activity compared with tenofovir 7 standard” value (10 μmol·l−1 complex of compound 8 and transporter 6c in buffer A for 10 minutes, three days of incubation, standard 10 μmol·l−1 tenofovir 7 throughout incubation, FIG. 7) turn out when `Nc1ncnc2c1ncn2CCOCP(=O)(O)OP(=O)(O)OP(=O)(O)O` [Compound 8, adefovir diphosphate] was run?
**A.** identical with the control experiments where a solution of compound 7 was present in the medium throughout the incubation

**Q.** What about the “Activity relative to drug 7, concluded from the shorter time of application” value (compound 8 applied using the 6c carrier for 10 min vs compound 7 present throughout incubation) of the same compound?
**A.** more active than the clinically used drug 7
